{"source": "PubChem BioAssay (NCI)", "test_in_all_cases": "NCI-60 cell line screen, 48 h", "key": {"786-0 renal": {"test_system": "786-0 renal"}, "A549 NSCLC": {"test_system": "A549 NSCLC"}, "ACHN renal": {"test_system": "ACHN renal"}, "CCRF-CEM leukemia": {"test_system": "CCRF-CEM leukemia"}, "COLO 205 colon": {"test_system": "COLO 205 colon"}, "DMS 114 small cell lung": {"test_system": "DMS 114 small cell lung"}, "DMS 273 small cell lung": {"test_system": "DMS 273 small cell lung"}, "EKVX NSCLC": {"test_system": "EKVX NSCLC"}, "HCC-2998 colon": {"test_system": "HCC-2998 colon"}, "HCT-116 colon": {"test_system": "HCT-116 colon"}, "HCT-15 colon": {"test_system": "HCT-15 colon"}, "HOP-18 NSCLC": {"test_system": "HOP-18 NSCLC"}, "HOP-62 NSCLC": {"test_system": "HOP-62 NSCLC"}, "HT29 colon": {"test_system": "HT29 colon"}, "K-562 leukemia": {"test_system": "K-562 leukemia"}, "KM12 colon": {"test_system": "KM12 colon"}, "LOX IMVI melanoma": {"test_system": "LOX IMVI melanoma"}, "M14 melanoma": {"test_system": "M14 melanoma"}, "M19-MEL melanoma": {"test_system": "M19-MEL melanoma"}, "MALME-3M melanoma": {"test_system": "MALME-3M melanoma"}, "MOLT-4 leukemia": {"test_system": "MOLT-4 leukemia"}, "NCI-H226 lung": {"test_system": "NCI-H226 lung"}, "NCI-H23 lung": {"test_system": "NCI-H23 lung"}, "NCI-H460 lung": {"test_system": "NCI-H460 lung"}, "NCI-H522 lung": {"test_system": "NCI-H522 lung"}, "OVCAR-3 ovarian": {"test_system": "OVCAR-3 ovarian"}, "OVCAR-4 ovarian": {"test_system": "OVCAR-4 ovarian"}, "OVCAR-8 ovarian": {"test_system": "OVCAR-8 ovarian"}, "RPMI-8226 leukemia": {"test_system": "RPMI-8226 leukemia"}, "SF-268 CNS": {"test_system": "SF-268 CNS"}, "SF-295 CNS": {"test_system": "SF-295 CNS"}, "SF-539 CNS": {"test_system": "SF-539 CNS"}, "SK-MEL-2 melanoma": {"test_system": "SK-MEL-2 melanoma"}, "SK-MEL-28 melanoma": {"test_system": "SK-MEL-28 melanoma"}, "SK-MEL-5 melanoma": {"test_system": "SK-MEL-5 melanoma"}, "SN12C renal": {"test_system": "SN12C renal"}, "SNB-19 CNS": {"test_system": "SNB-19 CNS"}, "SNB-75 CNS": {"test_system": "SNB-75 CNS"}, "SNB-78 CNS": {"test_system": "SNB-78 CNS"}, "SR leukemia": {"test_system": "SR leukemia"}, "SW-620 colon": {"test_system": "SW-620 colon"}, "TK-10 renal": {"test_system": "TK-10 renal"}, "UACC-257 melanoma": {"test_system": "UACC-257 melanoma"}, "UO-31 renal": {"test_system": "UO-31 renal"}, "XF 498 CNS": {"test_system": "XF 498 CNS"}, "CAKI-1 renal": {"test_system": "CAKI-1 renal"}, "IGROV1 ovarian": {"test_system": "IGROV1 ovarian"}, "KM20L2 colon": {"test_system": "KM20L2 colon"}, "LXFL 529 NSCLC": {"test_system": "LXFL 529 NSCLC"}, "OVCAR-5 ovarian": {"test_system": "OVCAR-5 ovarian"}, "RXF 393 renal": {"test_system": "RXF 393 renal"}, "U251 CNS": {"test_system": "U251 CNS"}, "UACC-62 melanoma": {"test_system": "UACC-62 melanoma"}}, "note": "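All cell lines were grown in 96-well plates and treated with compound for 48 hours. Definition used: TGI = concentration required for complete inhibition of growth.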"}
{"smiles": "Cc1cc([N+](=O)[O-])c(C)c2c1[nH]c1ccc(/C(CCC3CCCC3)=N\\N)cc12", "values": [{"measurement": "TGI", "setting": "786-0 renal", "result": 28, "unit": "µM"}, {"measurement": "TGI", "setting": "A549 NSCLC", "result": 34.2, "unit": "µM"}, {"measurement": "TGI", "setting": "ACHN renal", "result": 28.8, "unit": "µM"}, {"measurement": "TGI", "setting": "CCRF-CEM leukemia", "result": 44.9, "unit": "µM"}, {"measurement": "TGI", "setting": "COLO 205 colon", "result": 33.1, "unit": "µM"}, {"measurement": "TGI", "setting": "DMS 114 small cell lung", "result": 35.2, "unit": "µM"}, {"measurement": "TGI", "setting": "DMS 273 small cell lung", "result": 36.3, "unit": "µM"}, {"measurement": "TGI", "setting": "EKVX NSCLC", "result": 32, "unit": "µM"}, {"measurement": "TGI", "setting": "HCC-2998 colon", "result": 30.9, "unit": "µM"}, {"measurement": "TGI", "setting": "HCT-116 colon", "result": 21.7, "unit": "µM"}, {"measurement": "TGI", "setting": "HCT-15 colon", "result": 29.2, "unit": "µM"}, {"measurement": "TGI", "setting": "HOP-18 NSCLC", "result": 23.8, "unit": "µM"}, {"measurement": "TGI", "setting": "HOP-62 NSCLC", "result": 36.7, "unit": "µM"}, {"measurement": "TGI", "setting": "HT29 colon", "result": "> 100", "unit": "µM"}, {"measurement": "TGI", "setting": "K-562 leukemia", "result": 55.2, "unit": "µM"}, {"measurement": "TGI", "setting": "KM12 colon", "result": 34.9, "unit": "µM"}, {"measurement": "TGI", "setting": "LOX IMVI melanoma", "result": 29.6, "unit": "µM"}, {"measurement": "TGI", "setting": "M14 melanoma", "result": 39.5, "unit": "µM"}, {"measurement": "TGI", "setting": "M19-MEL melanoma", "result": 37.2, "unit": "µM"}, {"measurement": "TGI", "setting": "MALME-3M melanoma", "result": 32, "unit": "µM"}, {"measurement": "TGI", "setting": "MOLT-4 leukemia", "result": 39, "unit": "µM"}, {"measurement": "TGI", "setting": "NCI-H226 lung", "result": 41.5, "unit": "µM"}, {"measurement": "TGI", "setting": "NCI-H23 lung", "result": 32.7, "unit": "µM"}, {"measurement": "TGI", "setting": "NCI-H460 lung", "result": "> 100", "unit": "µM"}, {"measurement": "TGI", "setting": "NCI-H522 lung", "result": 35, "unit": "µM"}, {"measurement": "TGI", "setting": "OVCAR-3 ovarian", "result": 36.9, "unit": "µM"}, {"measurement": "TGI", "setting": "OVCAR-4 ovarian", "result": 53.9, "unit": "µM"}, {"measurement": "TGI", "setting": "OVCAR-8 ovarian", "result": 75, "unit": "µM"}, {"measurement": "TGI", "setting": "RPMI-8226 leukemia", "result": 62.2, "unit": "µM"}, {"measurement": "TGI", "setting": "SF-268 CNS", "result": 37.5, "unit": "µM"}, {"measurement": "TGI", "setting": "SF-295 CNS", "result": 38.1, "unit": "µM"}, {"measurement": "TGI", "setting": "SF-539 CNS", "result": 34.8, "unit": "µM"}, {"measurement": "TGI", "setting": "SK-MEL-2 melanoma", "result": 30.2, "unit": "µM"}, {"measurement": "TGI", "setting": "SK-MEL-28 melanoma", "result": 34, "unit": "µM"}, {"measurement": "TGI", "setting": "SK-MEL-5 melanoma", "result": 37.7, "unit": "µM"}, {"measurement": "TGI", "setting": "SN12C renal", "result": 29.7, "unit": "µM"}, {"measurement": "TGI", "setting": "SNB-19 CNS", "result": 35.7, "unit": "µM"}, {"measurement": "TGI", "setting": "SNB-75 CNS", "result": 46.7, "unit": "µM"}, {"measurement": "TGI", "setting": "SNB-78 CNS", "result": "> 100", "unit": "µM"}, {"measurement": "TGI", "setting": "SR leukemia", "result": 55.9, "unit": "µM"}, {"measurement": "TGI", "setting": "SW-620 colon", "result": 33.5, "unit": "µM"}, {"measurement": "TGI", "setting": "TK-10 renal", "result": 27.3, "unit": "µM"}, {"measurement": "TGI", "setting": "UACC-257 melanoma", "result": 42.7, "unit": "µM"}, {"measurement": "TGI", "setting": "UO-31 renal", "result": 30, "unit": "µM"}, {"measurement": "TGI", "setting": "XF 498 CNS", "result": 28.1, "unit": "µM"}]}
{"smiles": "CC(C)c1cccc(C(C)C)c1NC(=O)C(=O)C(C(=O)c1ccccc1-c1ccccc1)C1OC(=O)c2ccccc21", "note": "(stereo unspecified)", "values": [{"measurement": "TGI", "setting": "786-0 renal", "result": 36.8, "unit": "µM"}, {"measurement": "TGI", "setting": "A549 NSCLC", "result": "> 100", "unit": "µM"}, {"measurement": "TGI", "setting": "ACHN renal", "result": "> 100", "unit": "µM"}, {"measurement": "TGI", "setting": "CAKI-1 renal", "result": 76.5, "unit": "µM"}, {"measurement": "TGI", "setting": "CCRF-CEM leukemia", "result": 68.5, "unit": "µM"}, {"measurement": "TGI", "setting": "COLO 205 colon", "result": 81.5, "unit": "µM"}, {"measurement": "TGI", "setting": "DMS 114 small cell lung", "result": 49.2, "unit": "µM"}, {"measurement": "TGI", "setting": "DMS 273 small cell lung", "result": 60, "unit": "µM"}, {"measurement": "TGI", "setting": "HCC-2998 colon", "result": 32.5, "unit": "µM"}, {"measurement": "TGI", "setting": "HCT-116 colon", "result": 73.3, "unit": "µM"}, {"measurement": "TGI", "setting": "HCT-15 colon", "result": 44.5, "unit": "µM"}, {"measurement": "TGI", "setting": "HT29 colon", "result": 43.9, "unit": "µM"}, {"measurement": "TGI", "setting": "IGROV1 ovarian", "result": 74.7, "unit": "µM"}, {"measurement": "TGI", "setting": "K-562 leukemia", "result": 68.3, "unit": "µM"}, {"measurement": "TGI", "setting": "KM12 colon", "result": 32.9, "unit": "µM"}, {"measurement": "TGI", "setting": "KM20L2 colon", "result": 50.8, "unit": "µM"}, {"measurement": "TGI", "setting": "LOX IMVI melanoma", "result": 31.1, "unit": "µM"}, {"measurement": "TGI", "setting": "LXFL 529 NSCLC", "result": 34.6, "unit": "µM"}, {"measurement": "TGI", "setting": "M19-MEL melanoma", "result": 63.6, "unit": "µM"}, {"measurement": "TGI", "setting": "MALME-3M melanoma", "result": 33.9, "unit": "µM"}, {"measurement": "TGI", "setting": "MOLT-4 leukemia", "result": 74.1, "unit": "µM"}, {"measurement": "TGI", "setting": "NCI-H23 lung", "result": 3.32, "unit": "µM"}, {"measurement": "TGI", "setting": "NCI-H460 lung", "result": 36.5, "unit": "µM"}, {"measurement": "TGI", "setting": "NCI-H522 lung", "result": 30.5, "unit": "µM"}, {"measurement": "TGI", "setting": "OVCAR-4 ovarian", "result": 45.9, "unit": "µM"}, {"measurement": "TGI", "setting": "OVCAR-5 ovarian", "result": 35.4, "unit": "µM"}, {"measurement": "TGI", "setting": "OVCAR-8 ovarian", "result": 35, "unit": "µM"}, {"measurement": "TGI", "setting": "RPMI-8226 leukemia", "result": "> 100", "unit": "µM"}, {"measurement": "TGI", "setting": "RXF 393 renal", "result": 27, "unit": "µM"}, {"measurement": "TGI", "setting": "SF-268 CNS", "result": 61.5, "unit": "µM"}, {"measurement": "TGI", "setting": "SF-295 CNS", "result": 37.6, "unit": "µM"}, {"measurement": "TGI", "setting": "SF-539 CNS", "result": 27.9, "unit": "µM"}, {"measurement": "TGI", "setting": "SK-MEL-2 melanoma", "result": 32.1, "unit": "µM"}, {"measurement": "TGI", "setting": "SK-MEL-28 melanoma", "result": 71.9, "unit": "µM"}, {"measurement": "TGI", "setting": "SK-MEL-5 melanoma", "result": 29.5, "unit": "µM"}, {"measurement": "TGI", "setting": "SN12C renal", "result": 49.9, "unit": "µM"}, {"measurement": "TGI", "setting": "SNB-19 CNS", "result": 40.1, "unit": "µM"}, {"measurement": "TGI", "setting": "SNB-78 CNS", "result": 73.2, "unit": "µM"}, {"measurement": "TGI", "setting": "SR leukemia", "result": "> 100", "unit": "µM"}, {"measurement": "TGI", "setting": "SW-620 colon", "result": 37.8, "unit": "µM"}, {"measurement": "TGI", "setting": "TK-10 renal", "result": 46.1, "unit": "µM"}, {"measurement": "TGI", "setting": "U251 CNS", "result": 25.4, "unit": "µM"}, {"measurement": "TGI", "setting": "UACC-257 melanoma", "result": 29.9, "unit": "µM"}, {"measurement": "TGI", "setting": "UACC-62 melanoma", "result": 44.1, "unit": "µM"}, {"measurement": "TGI", "setting": "UO-31 renal", "result": 36.5, "unit": "µM"}, {"measurement": "TGI", "setting": "XF 498 CNS", "result": 26, "unit": "µM"}]}
